Laboratory results as given in ChEMBL document CHEMBL1201862, “PubChem BioAssay data set” (2004).
The source made the active and inactive calls. For most assays here, no stated cut-off is given here; in the data, actives have a measured AC50 and inactives only a lower limit.

Tests used:
Paired box protein Pax-8 = Paired box protein Pax-8 (Homo sapiens, UniProt Q06710); test: inhibitors of PAX8-driven TPO luciferase reporter, dose response, RMG-I cells, cherry-pick (AID 687027); assay type: functional, cell-based;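 further: luciferase reporter driven by Pax8 target thyroperoxidase promoter measured by SteadyGlo luminescence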
Chain of Paired box protein Pax-8 (Q06710 whole entry): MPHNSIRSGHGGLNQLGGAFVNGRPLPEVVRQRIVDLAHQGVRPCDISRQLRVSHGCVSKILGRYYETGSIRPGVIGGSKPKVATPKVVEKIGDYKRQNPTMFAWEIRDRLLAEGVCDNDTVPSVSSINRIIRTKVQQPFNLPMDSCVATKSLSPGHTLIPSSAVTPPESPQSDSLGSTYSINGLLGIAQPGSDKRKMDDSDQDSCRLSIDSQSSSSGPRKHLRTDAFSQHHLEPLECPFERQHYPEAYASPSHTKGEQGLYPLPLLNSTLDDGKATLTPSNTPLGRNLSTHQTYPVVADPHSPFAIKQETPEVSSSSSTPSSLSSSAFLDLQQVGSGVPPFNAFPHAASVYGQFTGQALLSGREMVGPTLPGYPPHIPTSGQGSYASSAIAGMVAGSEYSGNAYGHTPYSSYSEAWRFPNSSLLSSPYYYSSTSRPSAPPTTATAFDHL

[1] = PAX2 cell-based inhibition, dose response, selectivity assay for PAX8 inhibitor project, plate reader, dry powder samples (AID 743048); assay type: functional;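 further: HEK293 cells carrying a WT1 promoter luciferase reporter driven by expressed Pax2; potency is for inhibition of Pax2 driven reporter signal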
[2] = cytotoxicity in COV362 ovarian cancer cells, dose response, cytotoxicity control for PAX8 inhibitor project, cell-based, plate reader, dry powder, SA12 (AID 743144); assay type: functional
[3] = NIH:OVCAR-3 ovarian cancer cell cytotoxicity, dose response, PAX8 inhibitor project, plate reader, dry powder samples (AID 743044); assay type: functional, cell-based
[4] = PAX5 activity inhibitors, dose response, selectivity assay for PAX8 inhibitor project, cell-based, plate reader, dry powder samples (AID 743047); assay type: functional;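 further: HEK293 cells carrying a Pax5 driven CD19 promoter luciferase reporter; potency of inhibitors that lower reporter luminescence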
[5] = cytotoxicity in OVCAR4 cells, dose response, cytotoxicity control for PAX8 inhibitor project, cell-based, plate reader, dry powder, SA11 (AID 743150); assay type: functional; settings: OVCAR-4
[6] = cytotoxicity in COV434 cells, dose response, cytotoxicity control for PAX8 inhibitor project, cell-based, plate reader, dry powder, SA7 (AID 743145); assay type: functional
[7] = cytotoxicity in OV-90 ovarian cancer cells, dose response, PAX8 inhibitor project, cell-based, plate reader, dry powder, SA8 (AID 743149); assay type: functional
[8] = cytotoxicity in OVCAR8 ovarian cancer cells, dose response, PAX8 project, cell-based, plate reader, dry powder samples (AID 743197); assay type: functional; settings: OVCAR-8
[9] = cytotoxicity dependent on PAX8, dose response, cell-based, plate reader, dry powder (AID 743049); assay type: functional
[10] = P. falciparum Dd2 growth inhibitors, dose response, SYBR Green, dry powder samples, set 4 (AID 1159572); assay type: functional, cell-based
[11] = P. falciparum 3D7-ScDHODH growth inhibitors, dose response, SYBR Green, dry powder samples (AID 1159570); assay type: functional, cell-based;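 further: parasite growth measured after 72 hours of compound exposure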
[12] = HepG2 cell cytotoxicity, dose response, cytotoxicity control, plate reader, dry powder samples (AID 1159569); assay type: functional, cell-based;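 further: inhibitor potency with signal falling toward the positive control level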
[13] = P. falciparum Dd2 growth inhibitors, dose response, SYBR Green, cherry-picked samples (AID 1159567); assay type: functional, cell-based
[14] = P. falciparum Dd2 growth inhibitors, dose response, SYBR Green, dry powder samples (AID 1159566); assay type: functional, cell-based;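 further: potency for growth inhibition with lower SYBR green DNA signal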
[15] = P. falciparum ATP4 D1247Y mutant growth inhibitors, dose response, NITD609-resistant line, SYBR Green, dry powder (AID 1159571); assay type: functional, cell-based;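 further: parasites synchronized at ring stage by sorbitol before testing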

Measured: AC50

C[C@@H]1CN([C@@H](C)CO)C(=O)Cc2cc(NS(=O)(=O)c3ccccc3)ccc2O[C@H]1CN(C)Cc1ccc(C(F)(F)F)cc1
active: Paired box protein Pax-8 6.03 µM | [1] 17 µM | [2] 31.6 µM | [3] 23.4 µM | [4] 18.8 µM | [5] 45.6 µM | [6] 32.6 µM | [7] 28.5 µM | [8] 23.9 µM | [9] 11.1 µM

COc1ccc2c3c([nH]c2c1)[C@H](CO)N(C(C)=O)CC31CCN(S(=O)(=O)c2cccs2)CC1
active: [10] 8.2 µM

CO[C@@H]1CN(C)C(=O)c2cc(NC(=O)Nc3ccc(C(F)(F)F)cc3)ccc2OC[C@H](C)NC[C@H]1C
active: [11] 1.61 µM | [12] 19.3 µM | [13] 2.01 µM | [14] 2.28 µM | [15] 3.24 µM
